Data published in ChEMBL document CHEMBL1140622, “Structure based de novo design of novel glycogen synthase kinase 3 inhibitors” (Bioorg Med Chem, 2007).

Test: Inhibition of GSK3

IC50 [nM] | Log IC50 | SMILES
4 | – | CN1CCN(c2cnc(NCCNc3ccc([N+](=O)[O-])c(N)n3)nc2-c2ccc(Cl)cc2Cl)C(=O)C1
0.7 | – | O=C1NC(=O)C(c2cnc3cccnn23)=C1c1cn2c3c(cccc13)CN(C(=O)N1CCCCC1)CC2 [BISARYLMALEIMIDE 1]
0.8 | – | O=C1NC(=O)C(c2cncc3ccoc23)=C1c1cn2c3c(cccc13)CN(C(=O)N1CCOCC1)CC2 [BISARYLMALEIMIDE 2]
190 | – | CN(C)CCCn1cc(C2=C(c3c[nH]c4ccccc34)C(=O)NC2=O)c2ccccc21 [GF-109203]
130 | – | CC(=O)NC1=NC(=O)/C(=C2\CCNC(=O)c3c2cc(Br)n3C(C)=O)N1 [HYMENIALDISINE 2]
4 | – | CC(=O)O/N=C1/C(=C2/C(=O)Nc3cc(Cl)c(Cl)cc32)Nc2ccccc21 [INDIRUBIN 1]
5 | – | O=C1Nc2ccc(Br)cc2/C1=C1/Nc2ccccc2/C1=N\O [INDIRUBIN 2]
17 | – | O=C1NC(=O)C2=C1c1cn(c3ccccc13)CCOCCOCCOCCn1cc2c2cccnc21 [INDOLYLYLMALEIMIDE 1]
22 | – | O=C1NC(=O)C2=C1c1cn(c3ccccc13)CCOCCOCCOCCn1cc2c2ccccc21 [INDOLYLYLMALEIMIDE 2]
10 | – | COc1cccc(Nc2nccc(-c3cnn4ncccc34)n2)c1 [PYRAZOLOPYRIDAZINE 1]
12 | – | COc1ccc(Nc2nccc(-c3cnn4ncccc34)n2)cc1OC [PYRAZOLOPYRIDAZINE 2]
– | -8.8 | CN(C)CCNC(=O)c1ccc(/C=N/Nc2ncnc3c2cnn3-c2cccc3[nH]cnc23)cc1 [PYRAZOLOPYRIMIDINE 1]
– | -8.6 | COc1cccc(-n2ncc3c(N/N=C/c4ccc(S(C)(=O)=O)cc4)ncnc32)c1 [PYRAZOLOPYRIMIDINE 2]
